Test results published in ChEMBL document CHEMBL5370593, “Discovery and In Vitro Characterization of SPL028: Deuterated N,N-Dimethyltryptamine” (ACS Med Chem Lett, 2023).
pIC50, pKi: −log10 of the molar value.

Legend:
[1] = target: T1, 5-hydroxytryptamine receptor 6 (Homo sapiens, UniProt P50406); experiment: Displacement of [3H] LSD from human recombinant 5-HT6 receptor expressed in human HeLa cells incubated for 120 mins by spectrophotometric analysis; type: cell-based
[2] = target: T2, Alpha-2A adrenergic receptor (Homo sapiens, UniProt P08913); experiment: Displacement of [3H]-rauwolscine from human recombinant adrenergic alpha-2A receptor expressed in CHO-K1 cells incubated for 60 mins by spectrophotometric analysis; type: cell-based
T2 sequence (P08913 whole entry): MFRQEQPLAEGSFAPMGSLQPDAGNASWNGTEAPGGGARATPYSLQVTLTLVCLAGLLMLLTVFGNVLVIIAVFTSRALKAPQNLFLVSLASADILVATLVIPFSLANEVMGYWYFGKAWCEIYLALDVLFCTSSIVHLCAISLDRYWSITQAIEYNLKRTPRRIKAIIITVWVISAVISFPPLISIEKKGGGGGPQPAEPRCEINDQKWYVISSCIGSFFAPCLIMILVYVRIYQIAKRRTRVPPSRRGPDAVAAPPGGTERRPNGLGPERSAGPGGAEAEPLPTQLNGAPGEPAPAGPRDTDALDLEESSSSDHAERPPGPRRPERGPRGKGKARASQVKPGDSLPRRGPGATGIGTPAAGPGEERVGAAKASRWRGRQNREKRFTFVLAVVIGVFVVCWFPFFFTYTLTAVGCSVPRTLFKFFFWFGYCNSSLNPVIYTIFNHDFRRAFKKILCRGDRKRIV

[3] = target: T1, 5-hydroxytryptamine receptor 6; experiment: Displacement of [3H] LSD from human recombinant 5-HT6 receptor expressed in human HeLa cells assessed as inhibition constant incubated for 120 mins by spectrophotometric analysis; type: cell-based
[4] = target: T3, Alpha-1D adrenergic receptor (Homo sapiens, UniProt P25100); experiment: Displacement of [3H] prazosin from human recombinant adrenergic alpha-1d receptor expressed in HEK293 cells incubated for 60 mins by spectrophotometric analysis; type: cell-based
T3 sequence (P25100 whole entry): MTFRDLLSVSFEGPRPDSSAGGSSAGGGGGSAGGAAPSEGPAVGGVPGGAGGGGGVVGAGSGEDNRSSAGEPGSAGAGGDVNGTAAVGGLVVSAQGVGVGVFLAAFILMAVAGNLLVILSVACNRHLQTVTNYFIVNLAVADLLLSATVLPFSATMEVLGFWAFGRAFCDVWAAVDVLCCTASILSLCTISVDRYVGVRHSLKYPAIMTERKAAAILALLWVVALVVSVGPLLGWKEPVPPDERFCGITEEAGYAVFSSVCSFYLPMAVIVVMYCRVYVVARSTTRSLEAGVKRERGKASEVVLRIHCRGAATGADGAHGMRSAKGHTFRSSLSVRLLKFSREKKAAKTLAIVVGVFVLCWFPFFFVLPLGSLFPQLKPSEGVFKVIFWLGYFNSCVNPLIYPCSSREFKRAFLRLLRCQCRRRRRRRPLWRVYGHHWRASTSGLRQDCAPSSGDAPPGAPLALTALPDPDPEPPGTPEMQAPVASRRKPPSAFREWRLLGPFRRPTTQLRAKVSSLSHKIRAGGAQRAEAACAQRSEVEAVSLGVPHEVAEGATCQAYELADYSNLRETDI

[5] = target: 5-hydroxytryptamine receptor 1B (Homo sapiens, UniProt P28222); experiment: Displacement of [3H] GR125743 from human recombinant 5-HT1B receptor expressed in […] cells incubated for 90 mins by spectrophotometric analysis; type: cell-based
[6] = target: T4, Alpha-1B adrenergic receptor (Homo sapiens, UniProt P35368); experiment: Displacement of [3H] prazosin from human recombinant adrenergic alpha-1b receptor expressed in […] cells assessed as inhibition constant incubated for 60 mins by spectrophotometric analysis; type: cell-based
T4 sequence (P35368 whole entry): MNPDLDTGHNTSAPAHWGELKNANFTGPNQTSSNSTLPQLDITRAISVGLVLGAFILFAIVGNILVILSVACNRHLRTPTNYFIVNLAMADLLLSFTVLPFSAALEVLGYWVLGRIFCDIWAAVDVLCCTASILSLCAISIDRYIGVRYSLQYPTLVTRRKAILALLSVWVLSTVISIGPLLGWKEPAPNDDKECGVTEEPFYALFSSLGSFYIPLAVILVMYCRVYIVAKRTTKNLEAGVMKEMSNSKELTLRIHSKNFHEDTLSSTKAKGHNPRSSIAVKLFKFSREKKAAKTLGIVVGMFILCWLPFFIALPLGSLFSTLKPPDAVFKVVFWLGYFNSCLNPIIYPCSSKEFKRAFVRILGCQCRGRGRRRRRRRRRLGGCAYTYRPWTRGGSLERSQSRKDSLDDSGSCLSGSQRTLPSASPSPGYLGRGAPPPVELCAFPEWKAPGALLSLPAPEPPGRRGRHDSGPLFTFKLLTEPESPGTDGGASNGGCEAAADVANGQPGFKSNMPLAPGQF

[7] = target: T2, Alpha-2A adrenergic receptor; experiment: Displacement of [3H]-rauwolscine from human recombinant adrenergic alpha-2A receptor expressed in CHO-K1 cells assessed as inhibition constant incubated for 60 mins by spectrophotometric analysis; type: cell-based
[8] = Plasma protein binding in human assessed as unbound fraction by rapid equilibrium dialysis analysis; type: ADME, cell-free
[9] = target: T4, Alpha-1B adrenergic receptor; experiment: Displacement of [3H] prazosin from human recombinant adrenergic alpha-1b receptor expressed in […] cells incubated for 60 mins by spectrophotometric analysis; type: cell-based
[10] = Displacement of [3H] idazoxan from imidazoline receptor 2 (unknown origin) assessed as inhibition constant by spectrophotometric analysis; design: species or system Homo sapiens
[11] = target: T5, 5-hydroxytryptamine receptor 5A (Homo sapiens, UniProt P47898); experiment: Displacement of [3H] LSD from human recombinant 5-HT5A receptor expressed in CHO-K1 cells assessed as inhibition constant incubated for 60 mins by spectrophotometric analysis; type: cell-based
[12] = Metabolic stability in human liver mitochondrial fraction assessed as mean intrinsic clearance measured per million cells incubated upto 60 mins by LC-MS/MS analysis; type: ADME, mitochondria, Mitochondria; conditions: 1 h
[13] = target: T5, 5-hydroxytryptamine receptor 5A; experiment: Displacement of [3H] LSD from human recombinant 5-HT5A receptor expressed in CHO-K1 cells incubated for 60 mins by spectrophotometric analysis; type: cell-based
[14] = target: 5-hydroxytryptamine receptor 2A (Homo sapiens, UniProt P28223); experiment: Displacement of [3H] ketanserin from human recombinant 5-HT2A receptor expressed in CHO-K1 cells incubated for 60 mins by spectrophotometric analysis
[15] = target: T3, Alpha-1D adrenergic receptor; experiment: Displacement of [3H] prazosin from human recombinant adrenergic alpha-1d receptor expressed in HEK293 cells assessed as inhibition constant incubated for 60 mins by spectrophotometric analysis; type: cell-based
MAO-A = MAO-A (Homo sapiens, UniProt P21397); experiment: Inhibition of human recombinant MAO-A expressed in insect cells assessed as inhibition of 4-hydroxyquinoline formation at 10 uM using kynuramine as substrate incubated for 75 mins by spectrophotometric analysis relative to control; design: species or system Insect cell; conditions: probe kynuramine
[16] = Metabolic stability in human hepatocytes assessed as half life measured per million cells incubated upto 60 mins by LC-MS/MS analysis; type: ADME, cell-based, Hepatocyte

T5 sequence (P47898 whole entry): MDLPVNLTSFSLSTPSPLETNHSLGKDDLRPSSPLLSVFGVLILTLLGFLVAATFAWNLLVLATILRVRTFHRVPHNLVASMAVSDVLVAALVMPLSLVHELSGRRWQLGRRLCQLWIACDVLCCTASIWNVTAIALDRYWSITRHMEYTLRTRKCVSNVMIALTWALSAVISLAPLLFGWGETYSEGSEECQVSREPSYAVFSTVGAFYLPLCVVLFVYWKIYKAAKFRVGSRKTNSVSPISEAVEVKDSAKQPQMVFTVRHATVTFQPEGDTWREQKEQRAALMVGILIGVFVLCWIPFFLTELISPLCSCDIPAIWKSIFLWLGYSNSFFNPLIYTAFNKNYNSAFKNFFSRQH
T1 sequence (P50406 whole entry): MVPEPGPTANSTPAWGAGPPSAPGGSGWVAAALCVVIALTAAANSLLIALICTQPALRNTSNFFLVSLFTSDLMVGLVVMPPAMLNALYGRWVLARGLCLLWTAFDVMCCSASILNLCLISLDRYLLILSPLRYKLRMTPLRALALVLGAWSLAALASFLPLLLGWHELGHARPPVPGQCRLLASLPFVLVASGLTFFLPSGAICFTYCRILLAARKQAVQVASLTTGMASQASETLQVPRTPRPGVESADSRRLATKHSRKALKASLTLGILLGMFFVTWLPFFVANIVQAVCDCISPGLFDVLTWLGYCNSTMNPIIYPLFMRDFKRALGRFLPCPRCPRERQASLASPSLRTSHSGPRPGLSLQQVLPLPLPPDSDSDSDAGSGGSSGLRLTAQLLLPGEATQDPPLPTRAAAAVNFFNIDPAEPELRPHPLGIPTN
5-hydroxytryptamine receptor 1B, sequence (P28222 whole entry): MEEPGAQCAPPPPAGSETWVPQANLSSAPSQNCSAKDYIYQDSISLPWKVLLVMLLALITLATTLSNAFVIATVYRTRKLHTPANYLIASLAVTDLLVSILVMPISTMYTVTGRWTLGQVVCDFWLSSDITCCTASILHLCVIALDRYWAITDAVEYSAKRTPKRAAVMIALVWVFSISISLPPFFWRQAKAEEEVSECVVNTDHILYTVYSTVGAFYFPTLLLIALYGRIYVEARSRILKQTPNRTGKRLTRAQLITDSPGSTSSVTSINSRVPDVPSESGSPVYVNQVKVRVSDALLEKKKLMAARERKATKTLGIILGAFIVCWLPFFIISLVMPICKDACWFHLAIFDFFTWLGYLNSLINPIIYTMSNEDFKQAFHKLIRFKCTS
5-hydroxytryptamine receptor 2A, sequence (P28223 whole entry): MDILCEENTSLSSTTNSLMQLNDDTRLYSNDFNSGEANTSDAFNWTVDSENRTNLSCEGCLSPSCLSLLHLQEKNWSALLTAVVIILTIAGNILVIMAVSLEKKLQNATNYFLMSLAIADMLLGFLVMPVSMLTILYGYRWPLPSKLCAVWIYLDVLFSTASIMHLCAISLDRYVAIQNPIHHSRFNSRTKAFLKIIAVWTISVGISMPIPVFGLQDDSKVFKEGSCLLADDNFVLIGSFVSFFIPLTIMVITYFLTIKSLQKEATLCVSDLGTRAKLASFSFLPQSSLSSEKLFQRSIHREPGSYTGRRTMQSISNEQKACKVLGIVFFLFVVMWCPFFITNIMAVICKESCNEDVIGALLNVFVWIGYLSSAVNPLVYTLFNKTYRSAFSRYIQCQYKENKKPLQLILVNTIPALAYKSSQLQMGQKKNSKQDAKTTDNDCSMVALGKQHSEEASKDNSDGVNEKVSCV
MAO-A, sequence (P21397 whole entry): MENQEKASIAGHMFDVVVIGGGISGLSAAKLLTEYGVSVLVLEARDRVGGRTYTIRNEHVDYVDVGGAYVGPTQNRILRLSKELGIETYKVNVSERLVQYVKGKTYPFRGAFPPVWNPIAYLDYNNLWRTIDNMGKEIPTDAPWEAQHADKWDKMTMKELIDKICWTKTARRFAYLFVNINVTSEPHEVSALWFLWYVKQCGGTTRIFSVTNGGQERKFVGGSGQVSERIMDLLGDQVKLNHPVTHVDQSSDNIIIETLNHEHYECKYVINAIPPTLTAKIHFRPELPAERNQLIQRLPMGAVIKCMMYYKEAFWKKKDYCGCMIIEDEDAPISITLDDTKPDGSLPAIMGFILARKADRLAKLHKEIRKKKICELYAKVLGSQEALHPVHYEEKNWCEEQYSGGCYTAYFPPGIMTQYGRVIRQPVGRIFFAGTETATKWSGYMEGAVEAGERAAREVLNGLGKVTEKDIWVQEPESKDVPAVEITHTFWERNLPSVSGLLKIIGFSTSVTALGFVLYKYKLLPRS

SMILES | pIC50 [1] | pIC50 [2] | pKi [3] | pIC50 [4] | pIC50 [5] | pKi [6] | pKi [7] | fraction unbound [8] | pIC50 [9] | pKi [10] | pKi [11] | CLH [12] [µL/min] | pIC50 [13] | pIC50 [14] | pKi [15] | inhibition at 1.25 h, 10 µM (MAO-A) [%] | half-life [16] [h]
CN(C)CCc1c[nH]c2ccccc12.O=C(O)/C=C/C(=O)O | 5.92 | 5.65 | 6.25 | 5.51 | 5.62 | 6.59 | 5.95 | 0.68 | 6.17 | 5.89 | 5.77 | 168 | 5.48 | 6.82 | 5.82 | 85.3 | 3.17
O=C(O)/C=C/C(=O)O.[2H]C([2H])(Cc1c[nH]c2ccccc12)N(C)C | 5.97 | 5.52 | 6.30 | 5.49 | 5.70 | 6.43 | 5.82 | 0.7 | 6.03 | 5.76 | 5.77 | 16.5 | 5.48 | 6.66 | 5.80 | 84.3 | 3.72
